Experimental data reported in US9777014B2, “Tetrahydro-2H-pyrano[3,2-C]isochromene-6-ones and analogs for the treatment of inflammatory disorders” (Council of Scientific & Industrial Research, priority 2013, dated 2017).
Entries after “also recorded” stand apart in the source; their conditions may differ.

Key:
T-cell = assay: Effect on T-cell proliferation (Con-A stimulated spleen cells, MTT); format: cell-based; details: for inhibition of T-cell proliferation (in words): 0.1 μM-100 μM tested; for IC50: T-cell, Con-A stimulated spleen cells, 72 hrs, MTT
Protocol: Compounds provided in present invention were evaluated for their effect on T-cell proliferation. The protocol used for this bioassay is as follows: A single spleen cell suspension was prepared under sterile conditions and suspended in complete medium RPMI 1640 containing 10% Fetal calf serum (FCS). Spleenocytes were seeded into 4-5 wells of a 96-well flat bottom microtitre plate (Nunc) at (2×10^6 cells/ml). Thereafter, Concanavalin (Con-A) in the final concentration of 2.5 μg/well was added to stimulate T-cell, or LPS in the final concentration of 1 μg/ml was added to stimulate B-cell in the respective wells. Variable concentrations of compounds of the present invention (0.1 μM-100 μM) were added. Thereafter, the plates were incubated at 37° C. in 95% humidity at 5% CO2 in a CO2 incubator for 72 hrs. After 72 hours, 50 μl of MTT solution (5 mg/ml) was added to each well and the plates were incubated for 4 h. Thereafter, plates were centrifuged (400×g, 5 min.) and the untransformed MTT was removed. 200 μl of DMSO (192 μl with 8 μl 1N HCl) was added to each well, and the absorbance was determined in an ELISA reader at 570 nm after 15 min (Life Sci. 2007, 80, 1525-1538).

TNF-α [1] = assay: TNF-α production in Con A/LPS stimulated splenocytes (ELISA); format: cell-based; details: for IC50: Splenocyte, splenocytes, Con A or LPS, 72 h, ELISA; for inhibition of TNF-α production (in words): at low micromolar to nanomolar concentrations
Protocol: (§1) Splenocytes were seeded into three to four wells of a 96-well flat-bottom microtiter plate (Nunc) at 2×10^6 cells/ml. Cells were incubated with different concentrations of compounds (0.1 μM-100 μM) along with Con A (2.5 μg/well) or LPS (1 μg/ml) for 72 h at 37° C. with 5% CO2 in CO2 incubator. The culture supernatants were harvested and the measurement of cytokines (TNF-α and IL-6) in the culture supernatants was carried out using commercial kits as per manufacturer's instructions by using ELISA kits (R&D, USA) (Life Sci. 2007, 80, 1525-1538; J. Immunol. Methods 1983, 65, 55-63).

IL-6 [2] = assay: IL-6 production in Con A/LPS stimulated splenocytes (ELISA); format: cell-based; details: for IC50: Splenocyte, splenocytes, Con A or LPS, 72 h, ELISA; for inhibition of IL-6 production (in words): at low micromolar to nanomolar concentrations
Protocol: as §1

TNF-α [3] = assay: TNF-α in cell supernatant of macrophages, ex vivo LPS-induced model; set-up: species or system Balb/c mice
Excerpt: (§2) Macrophages are the main source of cytokines in inflammation. Lipopolysaccharides LPS may stimulate macrophages to produce large quantities of proinflammatory cytokines that promote inflammation. In this study, we investigated the effect of compounds 1-3 on the expression and secretion of cytokines (TNF-α/IL-6) in vivo in cell supernatant and serum. For this study, male Balb/c mice (5-6 weeks of age) were maintained under pathogen-free conditions in an animal housing unit in a temperature-controlled (23±2° C.) and light-controlled (12 h light/dark cycle) room. Animals were provided standard rodent chow and water ad libitum. Female Balb/C mice (8-10 weeks) were obtained from animal house, 3 or 4 per cage with a 12 h light/dark cycle, provided standard water ad libitum, and acclimated to their environment at least a week before the start of experiments. One hour prior to the start of each experiment, feed and water were removed from the cages. Mice were treated with 10 mg/kg and 100 mg/kg of compounds 1-3 orally over a period of 5 days. LPS 10 μg/ml was injected and blood as well macrophages were collected. The dose was selected based on in vitro result.
(§3) Ex vivo determination of TNF-α, IL-6 & IL-1β in cell supernatant: Blood for serum cytokines production was collected from each treated and untreated animals before the collection of macrophages from peritoneal cavity. Cells were seeded in 96-well plates at 5×10^5 cells mL^−1. Cells were then stimulated with 1 μg mL^−1 LPS for 4 hrs. The cell supernatant was stored at −80° C. The production of TNF-α, IL-6, IL-1β and NO in macrophages cell supernatants of LPS-challenged mice were measured by commercial ELISA kits (B. D. Pharmingenin; R&D systems, Inc., Minneapolis, Minn., USA) and cytokine concentration was determined (J. Am. College Nutr. 2004, 23, 71-78).

IL-6 [4] = assay: IL-6 in cell supernatant of macrophages, ex vivo LPS-induced model; set-up: species or system Balb/c mice
Excerpt: as §2, §3

TNF-α [5] = assay: TNF-α in serum, in-vivo LPS-induced model; set-up: species or system Balb/c mice; details: for TNF-α in serum: in-vivo LPS-induced model; for activity against TNF-α in in-vivo LPS model compared with bergenin (1): Table 3, serum
Excerpt: as §2
(§4) Measurement of in vivo serum levels of TNF-α and IL-6: The mice were divided into 4 groups: no treatment group, injected with phosphate buffered saline (PBS); LPS only; LPS+Dexamethasone (0.05 μg/ml); or LPS+compound 1 at 10 and 100 μM doses (n=6 for each group). Groups were pretreated orally with 200 μl of PBS, dexamethasone or compounds 1, 2, 3 for 45 min. Lipopolysaccharide (100 nM) was then administered (200 μL) i.p for treatment groups, and RPMI was administered i.p for the negative control group.
(§5) Ex vivo TNF-α and IL-6 determination by ELISA: Blood was allowed to clot overnight at 4° C. Serum was analyzed for IL-6, TNF-α, and IL-1β by ELISA. IL-6 analysis was performed using purified and biotin-conjugated rat anti-mouse IL-6 antibodies from PharMingen (San Diego, Calif.) as described previously. Streptavidin—peroxidase (Sigma) and 3,3′,5,5′-tetramethylbenzidine (TMB, Fluka, Ronkonkoma, N.Y.) were used for detection. Absorbance was read at 450 nm using a Vmax™ Kinetic Microplate Reader (Molecular Devices, Menlo Park, Calif.). For TNF-α analysis the OptEIA Set: Mouse TNF-α (Mono/Poly) kit was employed (PharMingen) (J. Immunol. Methods 1983, 65, 55-63).

IL-6 [6] = assay: IL-6 in serum, in-vivo LPS-induced model; set-up: species or system Balb/c mice
Excerpt: as §2, §4, §5

nitric oxide (NO) = assay: Nitric oxide (NO) in serum, in-vivo LPS-induced model (Griess assay); set-up: species or system Balb/c mice
Excerpt: as §2, §4
NO determination by Griess assay: NO production was indirectly assessed by measuring the nitrite level in the cultured media and serum determined by a colorimetric method based on the griess reaction. The cells were incubated with cinnamic aldehyde, cinnamic alcohol, cinnamic acid, coumarin (0, 6.25, 12.5, 25, and 50 μM) in presence of LPS (100 ng/mL) at 37° C. for 24 h. Then, cells were dispensed into 96-well plates, and […] of each supernatant was mixed with the same volume of griess reagent (1% sulfanilamide, 0.1% naphthyl ethylenediamine dihydrochloride and 5% phosphoric acid) and incubated at room temperature for 10 min., the absorbance was measured at 540 nm with a Micro-Reader (Molecular Devices, Orleans Drive, Sunnyvale, Calif.). Serum samples were diluted four times with distilled water and deproteinized by adding 1/20 volume of zinc sulphate (300 g/L) to final concentration of 15 g/L. After centrifugation at 10,000×g for 5 min at room temperature, 100 μL supernatant was applied to a microtitre plate well, followed by 100 μL of Griess reagent. After 10 min of color development at room temperature, the absorbance was measured at 540 nm with a Micro-Reader. By using sodium nitrite to generatea standard curve, the concentration of nitrite was measured by absorbance at 540 nm (J. Ethnopharmacology, 2011, 135, 545-552).

IL-4 = IL-4 production in stimulated splenocytes; format: cell-based; details: at low micromolar to nanomolar concentrations
IL-1β = IL-1β production in stimulated splenocytes; format: cell-based; details: at low micromolar to nanomolar concentrations

SMILES | IC50 (T-cell) [µM] | IC50 (TNF-α [1]) [µM] | IC50 (IL-6 [2]) [µM] | TNF-α in cell supernatant of macrophages (TNF-α [3]; Dose 10 (μM as printed)) | TNF-α in cell supernatant of macrophages (TNF-α [3]; Dose 100 (μM as printed)) [pg/mL] | IL-6 in cell supernatant of macrophages (IL-6 [4]; Dose 10 (μM as printed)) [ng/mL] | IL-6 in cell supernatant of macrophages (IL-6 [4]; Dose 100 (μM as printed)) [ng/mL] | TNF-α in serum (TNF-α [5]; Dose 10 (μM as printed)) [pg/mL] | TNF-α in serum (TNF-α [5]; Dose 100 (μM as printed)) [pg/mL] | IL-6 in serum (IL-6 [6]; Dose 10 (μM as printed)) [ng/mL] | IL-6 in serum (IL-6 [6]; Dose 100 (μM as printed)) [ng/mL] | NO in serum (nitric oxide (NO); Dose 10 (μM as printed)) [µM] | NO in serum (nitric oxide (NO); Dose 100 (μM as printed)) [µM] | inhibition of T-cell proliferation (in words) (T-cell) | inhibition of TNF-α production (in words) (TNF-α [1]) | inhibition of IL-6 production (in words) (IL-6 [2]) | activity against TNF-α in in-vivo LPS model compared with bergenin (1) (TNF-α [5]) | inhibition of IL-4 production (in words) (IL-4) | inhibition of IL-1β production (in words) (IL-1β) | also measured
COc1c(O)cc2c(c1O)[C@@H]1O[C@H](CO)[C@@H](O)[C@H](O)[C@H]1OC2=O [Compound 1, Bergenin, reference compound] | 0.1 | 0.63 | < 0.1 | 89 ± 6.1 pg/mL | 78 ± 4.9 | 24.6 ± 6.9 | 53.5 ± 7.5 | 667 ± 208 | 509 ± 185 | 282 ± 98 | 55 ± 12 | 2.62 ± 0.62 | 3.29 ± 0.88 | – | – | – | – | – | – | inhibition of T-cell proliferation (in words) (T-cell; listed as Bergenin (1)): showed inhibition; also recorded: most potent; inhibition of TNF-α production (in words) (TNF-α [1]; listed as Bergenin (1)): showed inhibition; also recorded: most potent; inhibition of IL-6 production (in words) (IL-6 [2]; listed as Bergenin (1)): showed inhibition; also recorded: most potent; inhibition of IL-4 production (in words) (IL-4; listed as Bergenin (1)): showed inhibition; also recorded: most potent; inhibition of IL-1β production (in words) (IL-1β; listed as Bergenin (1)): showed inhibition; also recorded: most potent
CCN(CC)Cc1c(O)c(OC)c(O)c2c1C(=O)OC1C2OC(CO)C(O)C1O (centres unmarked) [Compound 2, 7-((Diethylamino)methyl)-2,3,4,4a-tetrahydro-3,4,8,10-tetrahydroxy-2-(hydroxymethyl)-9-methoxypyrano[3,2-c]isochromen-6(10bH)-one] | < 0.1 | < 0.1 | < 0.1 | 102 ± 12^ pg/ml | 89 ± 6.4 | 41.4 ± 8.9 | 17.3 ± 3.0 | 585 ± 192 | 388 ± 115 | 102 ± 40 | 275 ± 65 | 5.0 ± 0.80 | 3.0 ± 0.73 | most potent | most potent | most potent | better activity than bergenin (1) | most potent | most potent | –
COc1c(O)c(CN2CCN(C)CC2)c2c(c1O)C1OC(CO)C(O)C(O)C1OC2=O (centres unmarked) [Compound 3, 2,3,4,4a-Tetrahydro-3,4,8,10-tetrahydroxy-2-(hydroxymethyl)-9-methoxy-7-((4-methylpiperazin-1-yl)methyl)pyrano[3,2-c]isochromen-6(10bH)-one] | 6.1 | < 0.1 | < 0.1 | 78 ± 4.9 pg/mL | 84 ± 6.7 | 12.1 ± 2.81 | 21.1 ± 3.2 | 672 ± 221 | 398 ± 62 | 282 ± 98 | 58 ± 12 | 2.87 ± 0.73 | 1.24 ± 0.25 | most potent | most potent | most potent | better activity than bergenin (1) | most potent | most potent | –
